Our source for the Activity values is ChEMBL document CHEMBL3272133, “1-[4-(4-Chlorophenyl)-2-(2,6-dichlorophenylthio)-n-butyl]-1H-imidazole nitrate, a new potent antifungal agent” (J Med Chem, 1978).

Experiment [1] deals with Candida albicans. In words: Antifungal activity against Candida albicans infected in mouse assessed as noninfected animals at 1% formulation in neat PEG 400 solution administered vaginally bid for 4 days measured on day 7 relative to placebo. The experiment is classed as functional.
Experiment [2] deals with Candida albicans. The experiment can be described thus: Antifungal activity against Candida albicans infected in mouse assessed as noninfected animals at 1% formulation in neat PEG 400 solution administered vaginally bid for 4 days measured 6 hrs post last dose relative to placebo. The experiment is classed as functional.
For experiment [3], the system named is Candida albicans. The experiment can be described thus: Antifungal activity against Candida albicans infected in mouse assessed as noninfected animals at 100000 U/g administered vaginally bid for 4 days measured on day 7 relative to placebo. In kind it is functional, organism-based.
Experiment [4] has as its system Candida albicans. In words: Antifungal activity against Candida albicans infected in mouse assessed as noninfected animals at 100000 U/g administered vaginally bid for 4 days measured 6 hrs post last dose relative to placebo. In kind it is functional, organism-based.

Consider `Clc1ccccc1C(c1ccccc1)(c1ccccc1)n1ccnc1` [CLOTRIMAZOLE], for which the Activity in the experiment on Candida albicans [1] is 55%; in the experiment with Candida albicans [2] it was 85%.
As for NYSTATIN, the Activity with Candida albicans [3] is 0%; in the experiment on Candida albicans [4], 10%.
